Consider 15 molecules from ChEMBL document CHEMBL4325851, “Synthesis of aminopyrazole analogs and their evaluation as CDK inhibitors for cancer therapy” (Bioorg Med Chem Lett, 2018).

Assay [1] has as its system MIA PaCa-2. The experiment in a line: Induction of apoptosis in human MIAPaCa2 cells assessed as increase in caspases 3/7 activity at 10 uM after 12 hrs by Caspase-Glo assay relative to control. The format is functional.
Assay [2] deals with Cyclin-dependent kinase 5/CDK5 activator 1 (Homo sapiens) (UniProt Q00535+Q15078). The experiment in a line: Inhibition of CDK5/p35 (unknown origin) at 100 nM in presence of ATP relative to control. The format is protein-complex assay.
Assay [3] in a line: Antiproliferative activity against human SUIT2 cells after 72 hrs by prestoblue assay. The conditions noted are these: SUIT-2, 72 h. It counts as functional, cell-based.
Assay [4] in a line: Antiproliferative activity against human S2-013 cells after 72 hrs by prestoblue assay. It counts as functional, cell-based.
In assay [5] the test system is MIA PaCa-2. The experiment in a line: Antiproliferative activity against human MIAPaCa2 cells after 72 hrs by prestoblue assay. The conditions noted are these: MIA PaCa-2, 72 h. The format is functional, cell-based.
A further assay relates to BXPC-3. The experiment in a line: Antiproliferative activity against human BxPC3 cells after 72 hrs by prestoblue assay. It counts as functional, cell-based. The note with it: BXPC-3, 72 h.
In the next assay the test system is ASPC1. The experiment in a line: Antiproliferative activity against human AsPC1 cells after 72 hrs by prestoblue assay. It counts as functional, cell-based. The note with it: ASPC1, 72 h.
Assay [6] has as its target Mitogen-activated protein kinase 10 (Homo sapiens, UniProt P53779). The experiment in a line: Inhibition of JNK3 (unknown origin) after 22 mins by homogeneous time-resolved fluorescence assay.
Assay [7] concerns the target Tyrosine-protein kinase BTK (Homo sapiens, UniProt Q06187). Nature of the assay: Inhibition of BTK (unknown origin).
In a further assay the target is T1, Aurora kinase A (Homo sapiens, UniProt O14965).
T1 sequence (O14965 whole entry): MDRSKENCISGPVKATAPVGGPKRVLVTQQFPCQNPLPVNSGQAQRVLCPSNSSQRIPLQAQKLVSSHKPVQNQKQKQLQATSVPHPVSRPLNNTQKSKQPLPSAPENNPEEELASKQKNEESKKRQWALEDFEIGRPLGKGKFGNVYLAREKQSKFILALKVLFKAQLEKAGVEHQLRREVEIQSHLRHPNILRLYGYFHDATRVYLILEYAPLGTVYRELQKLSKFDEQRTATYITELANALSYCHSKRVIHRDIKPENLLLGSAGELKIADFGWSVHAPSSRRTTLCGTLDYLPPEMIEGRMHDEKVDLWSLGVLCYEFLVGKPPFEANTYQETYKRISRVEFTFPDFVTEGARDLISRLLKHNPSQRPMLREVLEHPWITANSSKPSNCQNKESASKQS
The experiment in a line: Inhibition of Aurora A (unknown origin).

Assay [8] is filed under the species Homo sapiens. The experiment in a line: Selectivity ratio of IC50 for CDK9 (unknown origin) to IC50 for CDK5/p35 (unknown origin).
For assay [9], the target named is High affinity nerve growth factor receptor (Homo sapiens, UniProt P04629). Nature of the assay: Inhibition of TRKA (unknown origin).
The target of assay [10] is Serine/threonine-protein kinase PAK 1 (Homo sapiens, UniProt Q13153). Nature of the assay: Inhibition of PAK1 (unknown origin).
For assay [11], the target named is Mitogen-activated protein kinase 14 (Homo sapiens, UniProt Q16539). The experiment in a line: Inhibition of MAPK14 (unknown origin) after 22 mins by homogeneous time-resolved fluorescence assay.
The target in assay [12] is Cyclin-dependent kinase 5/CDK5 activator 1 (Homo sapiens, UniProt Q00535). The experiment in a line: Inhibition of CDK5/p35 (unknown origin) in presence of ATP. The format is protein-complex assay.
The target in assay [13] is Leucine-rich repeat serine/threonine-protein kinase 2 (Homo sapiens, UniProt Q5S007). Nature of the assay: Inhibition of LRRK2 (unknown origin).
Assay [14] deals with Cyclin-dependent kinase 2/cyclin E1 (Homo sapiens, UniProt P24941). Nature of the assay: Inhibition of CDK2/CyclinE (unknown origin) in presence of ATP. It counts as protein-complex assay.
For the next assay, the target named is Aurora kinase B (Homo sapiens, UniProt Q96GD4). The experiment in a line: Inhibition of Aurora B (unknown origin).
The species entered for assay [15] is Homo sapiens. The experiment in a line: Selectivity ratio of IC50 for CDK9 (unknown origin) to IC50 for CDK2/CyclinE (unknown origin).
The target in assay [16] is T2, Inhibitor of nuclear factor kappa-B kinase subunit beta (Homo sapiens, UniProt O14920).
T2 sequence (O14920 whole entry): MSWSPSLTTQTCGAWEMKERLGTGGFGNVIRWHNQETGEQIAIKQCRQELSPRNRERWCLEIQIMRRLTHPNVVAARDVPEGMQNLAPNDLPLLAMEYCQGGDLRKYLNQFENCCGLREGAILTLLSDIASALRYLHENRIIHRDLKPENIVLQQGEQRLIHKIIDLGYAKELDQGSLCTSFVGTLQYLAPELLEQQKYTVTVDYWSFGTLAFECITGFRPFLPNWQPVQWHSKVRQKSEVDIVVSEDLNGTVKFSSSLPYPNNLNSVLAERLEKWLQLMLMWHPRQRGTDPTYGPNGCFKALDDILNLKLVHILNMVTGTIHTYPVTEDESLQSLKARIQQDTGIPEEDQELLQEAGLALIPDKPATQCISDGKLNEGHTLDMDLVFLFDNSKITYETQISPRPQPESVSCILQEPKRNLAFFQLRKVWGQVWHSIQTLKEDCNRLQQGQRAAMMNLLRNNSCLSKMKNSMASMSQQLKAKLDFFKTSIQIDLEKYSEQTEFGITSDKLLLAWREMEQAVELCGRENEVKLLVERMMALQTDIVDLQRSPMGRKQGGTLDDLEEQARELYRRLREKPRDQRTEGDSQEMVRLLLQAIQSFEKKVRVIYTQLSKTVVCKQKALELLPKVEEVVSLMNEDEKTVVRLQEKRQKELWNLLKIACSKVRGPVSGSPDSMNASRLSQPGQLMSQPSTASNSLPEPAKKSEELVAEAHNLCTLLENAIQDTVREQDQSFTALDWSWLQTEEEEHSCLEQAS
Nature of the assay: Inhibition of IKKbeta (unknown origin).

The target of assay [17] is T3, Mitogen-activated protein kinase kinase kinase 12 (Homo sapiens, UniProt Q12852).
T3 sequence (Q12852 whole entry): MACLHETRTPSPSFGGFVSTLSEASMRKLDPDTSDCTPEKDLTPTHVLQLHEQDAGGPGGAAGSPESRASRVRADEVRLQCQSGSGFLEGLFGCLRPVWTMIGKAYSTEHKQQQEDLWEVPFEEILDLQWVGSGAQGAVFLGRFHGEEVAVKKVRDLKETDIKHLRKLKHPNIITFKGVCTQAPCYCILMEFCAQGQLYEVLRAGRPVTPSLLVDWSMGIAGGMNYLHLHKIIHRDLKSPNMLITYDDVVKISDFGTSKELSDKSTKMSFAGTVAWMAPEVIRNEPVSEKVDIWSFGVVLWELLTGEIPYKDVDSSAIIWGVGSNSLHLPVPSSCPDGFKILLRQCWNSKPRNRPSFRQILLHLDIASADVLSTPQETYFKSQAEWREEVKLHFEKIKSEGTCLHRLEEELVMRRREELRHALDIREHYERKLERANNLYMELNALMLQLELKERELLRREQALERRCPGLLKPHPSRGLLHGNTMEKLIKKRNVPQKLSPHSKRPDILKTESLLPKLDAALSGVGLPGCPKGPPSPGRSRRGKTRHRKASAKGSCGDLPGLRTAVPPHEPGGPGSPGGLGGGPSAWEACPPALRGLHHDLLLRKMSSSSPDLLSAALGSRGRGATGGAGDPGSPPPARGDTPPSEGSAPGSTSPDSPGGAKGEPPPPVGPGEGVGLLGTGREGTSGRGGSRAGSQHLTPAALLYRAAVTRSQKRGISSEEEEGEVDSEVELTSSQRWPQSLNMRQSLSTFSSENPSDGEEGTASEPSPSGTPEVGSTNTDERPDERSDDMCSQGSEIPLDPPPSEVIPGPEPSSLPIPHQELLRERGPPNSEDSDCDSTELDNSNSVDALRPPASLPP
The experiment in a line: Inhibition of DLK (unknown origin).

Assay [18] has as its target Cyclin-dependent kinase 9 (Homo sapiens, UniProt P50750). The experiment in a line: Inhibition of CDK9 (unknown origin).
In assay [19] the target is T4, Tyrosine-protein kinase ITK/TSK (Homo sapiens, UniProt Q08881).
T4 sequence (Q08881 whole entry): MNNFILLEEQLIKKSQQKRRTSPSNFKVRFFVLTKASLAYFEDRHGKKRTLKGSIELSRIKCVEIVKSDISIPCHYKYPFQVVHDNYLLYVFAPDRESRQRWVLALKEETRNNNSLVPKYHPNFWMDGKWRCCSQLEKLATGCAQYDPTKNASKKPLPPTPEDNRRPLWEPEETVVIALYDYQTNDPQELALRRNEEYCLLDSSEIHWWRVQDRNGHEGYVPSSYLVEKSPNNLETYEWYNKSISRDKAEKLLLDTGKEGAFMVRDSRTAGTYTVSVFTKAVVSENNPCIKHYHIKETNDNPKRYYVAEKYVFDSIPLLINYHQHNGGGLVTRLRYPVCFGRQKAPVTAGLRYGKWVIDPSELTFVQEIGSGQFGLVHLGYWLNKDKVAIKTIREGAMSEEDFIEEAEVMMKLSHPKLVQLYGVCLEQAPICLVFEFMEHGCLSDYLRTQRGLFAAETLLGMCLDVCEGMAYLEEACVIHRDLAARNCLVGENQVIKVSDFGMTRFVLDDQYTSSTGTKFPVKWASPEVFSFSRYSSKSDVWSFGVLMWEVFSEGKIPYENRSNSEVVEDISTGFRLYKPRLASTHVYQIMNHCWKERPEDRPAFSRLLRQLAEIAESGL
The experiment in a line: Inhibition of ITK (unknown origin).

For orientation: inhibition means the percentage by which the read-out fell short of the control. The IC50 is the concentration that gives 50% inhibition.

Chain of Cyclin-dependent kinase 5/CDK5 activator 1 (Homo sapiens) (Q00535 whole entry): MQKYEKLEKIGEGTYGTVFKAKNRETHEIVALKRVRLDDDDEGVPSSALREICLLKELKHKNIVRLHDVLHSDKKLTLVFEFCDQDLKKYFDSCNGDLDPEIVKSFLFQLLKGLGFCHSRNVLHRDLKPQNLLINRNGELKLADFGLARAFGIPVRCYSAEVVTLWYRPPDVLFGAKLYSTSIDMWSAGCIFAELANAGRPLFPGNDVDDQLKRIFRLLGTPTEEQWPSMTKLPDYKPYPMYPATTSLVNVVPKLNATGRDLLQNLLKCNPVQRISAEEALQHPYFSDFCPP
Chain of Cyclin-dependent kinase 5/CDK5 activator 1 (Homo sapiens) (Q15078 99-307 partner limits assumed): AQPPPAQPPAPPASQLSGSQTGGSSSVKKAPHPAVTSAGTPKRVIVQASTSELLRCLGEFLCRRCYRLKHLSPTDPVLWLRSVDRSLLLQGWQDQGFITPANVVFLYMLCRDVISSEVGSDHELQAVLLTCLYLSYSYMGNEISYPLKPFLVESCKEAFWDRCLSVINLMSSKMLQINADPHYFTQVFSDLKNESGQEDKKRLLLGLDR
Chain of Mitogen-activated protein kinase 10 (P53779 whole entry): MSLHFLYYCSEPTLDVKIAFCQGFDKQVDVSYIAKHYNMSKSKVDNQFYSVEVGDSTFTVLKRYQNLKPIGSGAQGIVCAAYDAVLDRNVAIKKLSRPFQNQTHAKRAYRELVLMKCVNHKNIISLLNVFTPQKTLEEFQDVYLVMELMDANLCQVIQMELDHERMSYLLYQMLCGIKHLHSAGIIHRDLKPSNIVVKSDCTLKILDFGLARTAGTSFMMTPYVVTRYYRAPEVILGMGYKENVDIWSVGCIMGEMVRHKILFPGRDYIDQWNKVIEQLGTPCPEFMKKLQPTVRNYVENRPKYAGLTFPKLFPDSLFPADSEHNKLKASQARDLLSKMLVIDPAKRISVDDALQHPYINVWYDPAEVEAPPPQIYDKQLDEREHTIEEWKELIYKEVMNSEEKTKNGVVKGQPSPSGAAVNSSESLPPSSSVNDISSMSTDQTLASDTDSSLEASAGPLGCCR
Chain of Serine/threonine-protein kinase PAK 1 (Q13153 whole entry): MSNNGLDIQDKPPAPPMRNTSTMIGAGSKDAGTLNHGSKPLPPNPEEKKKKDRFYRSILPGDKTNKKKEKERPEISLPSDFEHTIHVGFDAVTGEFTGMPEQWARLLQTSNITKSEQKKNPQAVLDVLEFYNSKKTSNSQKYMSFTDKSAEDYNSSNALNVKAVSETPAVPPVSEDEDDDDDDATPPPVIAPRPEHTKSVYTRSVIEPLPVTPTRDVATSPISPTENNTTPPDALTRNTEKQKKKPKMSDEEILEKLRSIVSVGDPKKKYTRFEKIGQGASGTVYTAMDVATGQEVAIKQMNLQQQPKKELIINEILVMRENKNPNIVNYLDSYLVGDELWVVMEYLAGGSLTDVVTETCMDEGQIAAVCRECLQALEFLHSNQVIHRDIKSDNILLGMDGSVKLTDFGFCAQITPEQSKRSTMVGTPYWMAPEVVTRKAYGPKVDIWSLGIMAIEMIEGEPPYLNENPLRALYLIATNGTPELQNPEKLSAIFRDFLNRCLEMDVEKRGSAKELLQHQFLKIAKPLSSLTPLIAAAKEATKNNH
Chain of Cyclin-dependent kinase 5/CDK5 activator 1 (Q00535 whole entry): as the sequence (Q00535 whole entry) above
Chain of Cyclin-dependent kinase 5/CDK5 activator 1 (Q15078 whole entry, further chain): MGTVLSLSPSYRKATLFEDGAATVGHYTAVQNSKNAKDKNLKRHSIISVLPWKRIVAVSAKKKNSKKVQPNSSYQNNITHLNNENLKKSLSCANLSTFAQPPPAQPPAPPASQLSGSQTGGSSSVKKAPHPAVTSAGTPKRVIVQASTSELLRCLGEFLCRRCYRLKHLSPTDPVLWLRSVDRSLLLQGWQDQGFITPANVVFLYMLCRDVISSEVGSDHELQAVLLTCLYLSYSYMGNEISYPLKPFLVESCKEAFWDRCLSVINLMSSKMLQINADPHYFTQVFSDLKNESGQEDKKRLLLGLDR
Chain of Leucine-rich repeat serine/threonine-protein kinase 2 (Q5S007 whole entry): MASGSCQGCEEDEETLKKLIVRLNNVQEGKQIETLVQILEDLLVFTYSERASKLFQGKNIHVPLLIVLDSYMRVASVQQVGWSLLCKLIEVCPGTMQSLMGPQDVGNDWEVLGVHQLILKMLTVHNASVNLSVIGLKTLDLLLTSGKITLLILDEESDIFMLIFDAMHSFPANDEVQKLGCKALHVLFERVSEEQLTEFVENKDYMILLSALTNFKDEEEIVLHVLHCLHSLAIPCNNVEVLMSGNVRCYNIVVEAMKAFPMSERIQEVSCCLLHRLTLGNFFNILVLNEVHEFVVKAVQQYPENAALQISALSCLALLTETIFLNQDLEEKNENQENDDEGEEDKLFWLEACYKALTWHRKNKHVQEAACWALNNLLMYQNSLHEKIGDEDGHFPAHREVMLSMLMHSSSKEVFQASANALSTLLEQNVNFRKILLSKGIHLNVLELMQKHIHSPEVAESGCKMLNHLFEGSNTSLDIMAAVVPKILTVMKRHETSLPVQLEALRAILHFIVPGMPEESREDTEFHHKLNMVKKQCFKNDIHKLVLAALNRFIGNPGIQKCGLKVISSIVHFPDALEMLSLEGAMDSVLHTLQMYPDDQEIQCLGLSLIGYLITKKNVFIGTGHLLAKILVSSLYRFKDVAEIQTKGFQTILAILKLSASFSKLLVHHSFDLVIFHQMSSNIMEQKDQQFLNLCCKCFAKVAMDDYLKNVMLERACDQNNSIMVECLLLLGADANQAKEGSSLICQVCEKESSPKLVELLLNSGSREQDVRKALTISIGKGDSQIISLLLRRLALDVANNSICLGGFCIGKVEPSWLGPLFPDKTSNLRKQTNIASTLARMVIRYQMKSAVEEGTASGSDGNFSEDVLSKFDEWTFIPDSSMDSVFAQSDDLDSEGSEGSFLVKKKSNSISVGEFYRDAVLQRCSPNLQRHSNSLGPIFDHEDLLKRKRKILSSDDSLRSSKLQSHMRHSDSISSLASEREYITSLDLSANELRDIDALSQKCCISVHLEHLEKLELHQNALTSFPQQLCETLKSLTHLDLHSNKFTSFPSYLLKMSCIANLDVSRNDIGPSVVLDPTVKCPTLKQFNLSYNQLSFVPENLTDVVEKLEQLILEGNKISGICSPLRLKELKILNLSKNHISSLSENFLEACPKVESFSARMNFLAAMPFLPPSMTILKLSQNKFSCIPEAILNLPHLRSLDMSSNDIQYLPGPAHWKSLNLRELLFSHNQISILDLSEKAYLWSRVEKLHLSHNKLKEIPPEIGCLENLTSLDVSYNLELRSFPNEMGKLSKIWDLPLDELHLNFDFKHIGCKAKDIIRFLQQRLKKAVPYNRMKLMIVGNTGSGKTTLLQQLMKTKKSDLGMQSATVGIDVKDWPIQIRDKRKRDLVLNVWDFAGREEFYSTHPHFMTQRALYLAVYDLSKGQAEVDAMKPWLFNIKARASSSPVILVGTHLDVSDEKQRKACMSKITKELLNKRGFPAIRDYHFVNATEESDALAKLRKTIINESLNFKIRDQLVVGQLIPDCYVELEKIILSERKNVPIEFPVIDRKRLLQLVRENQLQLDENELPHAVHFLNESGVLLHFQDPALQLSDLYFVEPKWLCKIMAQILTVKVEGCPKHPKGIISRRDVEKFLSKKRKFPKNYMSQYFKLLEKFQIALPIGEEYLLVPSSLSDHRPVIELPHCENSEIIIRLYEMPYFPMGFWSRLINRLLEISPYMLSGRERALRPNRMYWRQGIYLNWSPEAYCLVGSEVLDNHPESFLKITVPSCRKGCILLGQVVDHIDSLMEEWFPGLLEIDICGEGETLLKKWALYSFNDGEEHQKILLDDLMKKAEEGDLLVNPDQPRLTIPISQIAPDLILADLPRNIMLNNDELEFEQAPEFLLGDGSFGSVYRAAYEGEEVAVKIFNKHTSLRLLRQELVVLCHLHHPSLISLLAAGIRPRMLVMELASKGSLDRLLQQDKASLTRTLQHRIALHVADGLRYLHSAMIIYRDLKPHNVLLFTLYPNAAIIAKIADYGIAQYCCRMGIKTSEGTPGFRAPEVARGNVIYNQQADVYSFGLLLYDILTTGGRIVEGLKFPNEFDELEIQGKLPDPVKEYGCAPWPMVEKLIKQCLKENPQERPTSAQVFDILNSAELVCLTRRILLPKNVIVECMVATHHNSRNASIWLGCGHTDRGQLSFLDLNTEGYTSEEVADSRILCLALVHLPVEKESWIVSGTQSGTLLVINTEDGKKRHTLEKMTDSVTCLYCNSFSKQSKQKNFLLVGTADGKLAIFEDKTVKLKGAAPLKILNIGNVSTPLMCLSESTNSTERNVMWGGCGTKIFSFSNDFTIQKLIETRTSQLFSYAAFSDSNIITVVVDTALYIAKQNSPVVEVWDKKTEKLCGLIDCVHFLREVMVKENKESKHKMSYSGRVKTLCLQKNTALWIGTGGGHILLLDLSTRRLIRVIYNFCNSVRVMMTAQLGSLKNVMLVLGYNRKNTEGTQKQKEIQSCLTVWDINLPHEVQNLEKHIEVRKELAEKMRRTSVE
Chain of Aurora kinase B (Q96GD4 whole entry): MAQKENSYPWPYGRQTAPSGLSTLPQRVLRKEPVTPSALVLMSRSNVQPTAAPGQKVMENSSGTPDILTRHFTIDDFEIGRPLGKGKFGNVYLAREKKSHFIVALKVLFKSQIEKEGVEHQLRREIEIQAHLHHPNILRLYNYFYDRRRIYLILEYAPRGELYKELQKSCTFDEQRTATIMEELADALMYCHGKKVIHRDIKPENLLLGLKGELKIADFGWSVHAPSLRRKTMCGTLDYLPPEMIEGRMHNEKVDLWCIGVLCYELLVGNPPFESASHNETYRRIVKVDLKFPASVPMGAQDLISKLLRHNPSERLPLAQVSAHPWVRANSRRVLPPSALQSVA

Regarding `Cc1cc(NC(=O)Cc2ccc3c(c2)OCCO3)n[nH]1`, the “fold change (FC)” value in the assay with MIA PaCa-2 [1] is reported as <2. Moreover, the inhibition in assay [2] was > 90%.
The corresponding values for `O=C(Cc1ccc2ccccc2c1)Nc1cc(C2CC2)n[nH]1` are <2 and > 90%.
In the same order, the values of `O=C(Cc1ccc2c(c1)OCCO2)Nc1cc(C2CCC2)[nH]n1` are <2 and > 90%.
The corresponding values for `COc1ccc(CC(=O)Nc2cc(C3CCC3)[nH]n2)cc1OC` are <2 and > 90%.
In the case of `O=C(Cc1ccc2c(c1)OCCO2)Nc1cc(-c2ccccc2)[nH]n1`, the “fold change (FC)” value with MIA PaCa-2 [1] is given as <2. The inhibition in assay [2] is > 90%.
In the same order, the values of `Cc1cc(NC(=O)Cc2ccc3ccccc3c2)n[nH]1` are <2 and > 90%.
Consider `O=C(C/C=C/c1ccccc1)Nc1cc(C2CCCC2)[nH]n1`, for which, in the assay with MIA PaCa-2 [1], the “fold change (FC)” value is reported as <2. Besides, the inhibition in [2] was > 90%.
On to `O=C(NC1CCNCC1)c1n[nH]cc1NC(=O)c1c(Cl)cccc1Cl` [AT-7519], for which the IC50 in [3] came out at 557 nM; in [4], 2770 nM; in the assay with MIA PaCa-2 [5] it was 411 nM; in the assay with BXPC-3, 640 nM.
Take `Cc1cc(NC(=O)C/C=C/c2ccccc2)n[nH]1`: the “fold change (FC)” value in the assay on MIA PaCa-2 [1] was <2. Further, the inhibition in assay [2] was > 90%.
Take `O=C(C/C=C/c1ccccc1)Nc1cc(C2CCC2)[nH]n1`: the IC50 is > 2000 nM in assay [3]; 1470 nM in assay [4]; 1560 nM with MIA PaCa-2 [5]; > 2000 nM in the assay on ASPC1; > 2000 nM with BXPC-3. Moreover, the “fold change (FC)” value with MIA PaCa-2 [1] was >2. For the same molecule, in assay [2], the inhibition is > 90%.
Turning to `O=C(Cc1ccc2c(c1)OCCO2)Nc1cc(C2CCCC2)[nH]n1`, the “fold change (FC)” value in the assay on MIA PaCa-2 [1] is given as <2. For the same molecule, the inhibition in assay [2] was > 90%.
For the molecule `COc1ccc(CC(=O)Nc2n[nH]c3ccccc23)cc1OC`, the “fold change (FC)” value in the assay with MIA PaCa-2 [1] was <2. Further, the inhibition in assay [2] is > 90%.
`O=C(Cc1ccc(-c2ccccc2)cc1)Nc1cc(C2CCC2)[nH]n1`: the IC50 in [6] was > 10000 nM; in assay [7], > 10000 nM; in [3], 209 nM; against Aurora kinase A, > 10000 nM; in assay [9] it was > 10000 nM; in assay [4] it was 192 nM. Further, the IC50 is > 10000 nM in assay [10]; > 10000 nM in assay [11]; 23 nM in [12]; > 10000 nM in assay [13]; 24 nM in [14]; > 10000 nM against Aurora kinase B. In addition, the IC50 in the assay with MIA PaCa-2 [5] was 247 nM; in [16], > 10000 nM; in the assay on ASPC1, 315 nM; in [17] it was > 10000 nM; in assay [18], 911 nM; in [19] it was > 10000 nM. Moreover, the Ratio IC50 in the assay filed under Homo sapiens [8] and in the assay listed under Homo sapiens [15] was > 35 in each case. Besides, in the assay on MIA PaCa-2 [1], the “fold change (FC)” value was >2. Moreover, in [2], the inhibition is > 90%.
In the case of `O=C(Cc1ccc2ccccc2c1)Nc1cc(C2CCC2)[nH]n1`, the IC50 in assay [3] is > 2000 nM; in assay [4] it was 875 nM; in the assay on ASPC1, 1160 nM; in the assay on BXPC-3, > 2000 nM. Moreover, the “fold change (FC)” value in the assay with MIA PaCa-2 [1] is >2. In addition, the inhibition in assay [2] is > 90%.
Turning to `O=C(C/C=C/c1ccccc1)Nc1n[nH]c2ccccc12`, the “fold change (FC)” value in the assay on MIA PaCa-2 [1] was <2. Moreover, the inhibition in assay [2] is > 90%.
